# Legend:
# [1] = system: hyperoxia-exposed BPD mouse model; assay: BPD mouse model: multiplex ELISA of blood serum cytokines; type: in vivo
# Experimental: Multiplex ELISA. Lung lysate and blood plasma from control and AVR-48 treated group were used for Multiplex ELISA performed on 4 separate inflammatory panels of Meso Scale Discovery multispot assay system (MSD, Rockville, MD) to detect 2 chemokines (MIP-2, MCP-1) and 8 cytokines: IL-21, IP-10, IFNγ, IL-1(3, TNFα, IL-17, IL-10 and IL-6 following the manufacturer's instructions. Briefly, samples were diluted 1:1 in a total volume of 25 μl with the dilution buffer provided with MSD kit and incubated with the above labelling antibodies for 2 h, RT followed by washing with PB ST. The […] was detected using the MSD-specific luminometer.
# [2] = system: hyperoxia-exposed BPD mouse model; assay: Hyperoxia-exposed BPD mouse model: dose response and lung morphometry; type: in vivo
# Experimental: Simultaneously, the AVR-48 nanosuspension formulation IN (0.11 mg/kg) was tested as well as in solution form, IP and IV (10 mg/kg) (through the facial vein), and confirmed that all routes of administration gave similar outcomes. […] From the PK study, as described above, the bioavailability of the drug in the plasma and lungs were similar when delivered as solution formulation via either IN or IP routes. As the goal of this study is to develop AVR-48 as a commercially viable and applicable therapeutic candidate for BPD, the IP route was selected as the preferred mode of drug delivery in neonatal murine pups, with the rationale that it would be easier to deliver the drug systemically to preterm babies IV, rather than the IN route. The results and outcome of all the routes of administration have been presented in a cumulative manner, as the endpoint was similar for all routes of administration. […] FIG. 1 is a dose response study of AVR-48 at different doses of […], given IP. ****p<0.0001. N=5-7 mice per group. 10 mg/kg (IP) was selected as the most efficacious dose. IP: intraperitoneal; Hyp: hyperoxia; BPD: Bronchopulmonary dysplasia.
# Formulation of AVR-48 for efficacy and toxicokinetic studies. For the mouse dose response efficacy studies, AVR-48 was reconstituted in 0.9% sterile normal saline to give a final dose concentration of […] as a colorless solution, and injected IP (30 μl) on P2 and P4. The PLGA encapsulated AVR-48 or the GFP-tagged analog was resuspended in deionized sterile water to make a nanosuspension with final dose concentration of 0.025, 0.05 and 0.11 mg/kg/drop. The surfactant Curosurf® (Cheisi Parma, Italy), available commercially, was delivered IN at a volume of 3 μl per nostril, on P2 and P4. For the toxicokinetic study of AVR-48 in rat pups, a formulation of 10% DMSO, 20% tetraglycol, 20% PEG 400, and 50% sterile water was made fresh before administration (Shah, Das et al. 2021).
# For the hyperoxia experiment, newborn pups were exposed to 100% hyperoxia (P0), along with their mothers, in cages in an airtight Plexiglas chamber (OxyCycler; Biospherix, Redfield, NY, USA) as described previously by the present inventors (Syed, Das et al., 2017, Leary, Das et al. 2019, Das, Acharya et al. 2020, relevant portions incorporated herein) for 4 consecutive days (till P4) and removed to RA on P5 to be recovered till P14, so as to emulate the human BPD condition. All pups were sacrificed on P14 for further experimental analyses. The pups without any hyperoxia exposure served as the corresponding RA (normoxia) controls.
# Histology, immunohistochemistry and immunofluorescence. Both the RA control and BPD mice were anesthetized (using an overdose of a cocktail of xylazine-ketamine) and lung and heart tissues were harvested after perfusion and fixed overnight in 4% paraformaldehyde. Fixed tissues were then washed in fresh PBS, dehydrated using 70% ethanol, cleared, and embedded in paraffin to be sectioned and stained with hematoxylin and eosin (H&E) for lung morphometry or immunohistochemistry/immunofluorescence as previously described (Leary, Das et al. 2019, Das, Achaiya et al. 2020, Das, Curstedt et al. 2020). Immunofluorescence staining was done for Ki67 (Abcam, 1:10) and Von Wilebrand Factor (vWF-DAKO, 1:100) on lung paraffin sections following the protocol as described earlier (Leary, Das et al. 2019) while TUNEL staining was done following the manufacturer's instructions (Roche).
# Morphometry and quantification. To study chord length, septal thickness and radial alveolar count in the lungs, RV, LV and IVS thickness, 5 μm-thick left-lobe lung and heart paraffin-embedded sections were stained with H&E. Multiple randomly chosen areas (at least 10 areas) from each section were photographed using 100× total magnification. […]
# pre-term lamb BPD model = assay: Pre-term lamb BPD model: plasma cytokines; type: in vivo
# [3] = system: hyperoxia-exposed BPD mouse model; assay: BPD mouse model: western blot of lung homogenates; type: in vivo
# Experimental: Western Blot Analysis. Western blot analyses for TLR4 (Cell Signaling Technology, Danvers, MA; 1:1000), Ang2 (1:500; Sigma, St. Louis, MO), TGFβ, NFkB, TNFα, IL-10, IL-1(3, IL-4, Vegf, eNos, Vegf-D, BmpRII, Vinculin (1:500; SantaCruz, Dallas, TX), were performed, as previously described (Leary, Das et al. 2019), by loading 30 μg of lung protein, followed by immunoblotting with the above antibodies and visualizing with Odyssey infrared imaging system (LI-COR Biosciences, Lincoln, NE). Densitometric quantification was done using ImageJ after normalizing with Vinculin, the loading control housekeeping protein.
# [4] = system: adult respiratory distress syndrome/acute lung injury (ARDS/ALI) mouse model; settings: cited from earlier work
# [5] = 2 doses IP 10 mg/kg on P2 and P4, comparable to RA controls
# [6] = IP dosing, doses 0.5, 2.0, 5.0 and 10 mg/kg
smiles,measurement,setting,value
CC(=O)N[C@@H]1C(Oc2ccc([N+](=O)[O-])cc2)OC(CO)C(O)C1O (stereo partly shown) [AVR-48],IFNγ,[1]; AVR-48 treated group,decreased to normal levels
same,IL-1β,[1]; AVR-48 treated group,decreased to normal levels
same,IP-10,[1]; AVR-48 treated group,decreased to normal levels
same,MCP-1,[1]; AVR-48 treated group,decreased to normal levels
same,TNFα,[1]; AVR-48 treated group,decreased to normal levels
same,IL-10,[1]; BPD group,markedly increased
same,IL-17,[1]; treated vs untreated BPD,no change
same,IL-21,[1]; treated vs untreated BPD,no change
same,MIP-2,[1]; treated vs untreated BPD,no change
same,prevention of the BPD phenotypes,[2]; 10 mg/kg IP,> 80%
same,chord length (alveolar sacs),[2]; [5],regained their normal shape and size
same,septal thickness (alveolar sacs),[2]; [5],regained their normal shape and size
same,radial alveolar counts (RAC),"[2]; 2 doses IP 10 mg/kg on P2 and P4, vs BPD",improved
same,chord length,[2]; AVR-48 administered adjuvantly with CS (Curosurf IN),normal
same,interaction between the drug and CS,[2]; AVR-48 administered adjuvantly with CS in mouse pups,no adverse effect
same,minimum efficacious dose,[2]; [6],5.0 mg/kg
same,optimum / most efficacious dose,[2]; [6],10 mg/kg
same,minimum efficacious dose,[2]; juvenile mouse,5 mg/kg/day
same,inflammatory cytokines in neonatal mouse pups with BPD,"[2]; mouse, in vivo",decrease inflammatory cytokines
same,IL-10 concentration in plasma,"pre-term lamb BPD model; early time points (1-4 days), 2/d for 7 days, vs vehicle",significantly decreased
same,IL-6 concentration in plasma,pre-term lamb BPD model; vs vehicle treated lambs after 10 days,significantly decreased
same,inflammation in room air animals,[3]; RA+AVR-48 treated group,increased inflammation
same,IL-1β,"[3]; lung homogenates, vs BPD",marked decrease
same,IL-13,"[3]; lung homogenates, vs BPD",marked decrease
same,TNFα,"[3]; lung homogenates, vs BPD",marked decrease
same,nuclear factor kappa B (NFkB),"[3]; lung homogenates, vs BPD",marked decrease
same,Angiopoetin 2 (Ang2),"[3]; lung, vs BPD",significantly decreased
same,Vegf-D protein,"[3]; lung, vs BPD",decreases
same,IL-10,"[3]; lung, vs BPD group",increased
same,Total vascular endothelial growth factor (Vegf),"[3]; lung, vs BPD group",increased considerably
same,bone morphometric protein receptor (BmpR)II,"[3]; lung, vs BPD group",significantly decreased
same,endothelial nitric oxide synthase (eNOS),"[3]; lung, vs BPD group",significantly decreased
same,IL-4,"[3]; lungs, vs BPD group",decrease
same,TGFβ,"[3]; lungs, vs BPD group",decrease
same,TLR4 expression in the lungs,"[3]; whole lung homogenates, after treatment",increase in the expression of TLR4
same,efficacy dose,"[4]; IV, Shah, Das et al. 2021",10 mg/kg/dose
same,severe lung inflammation,"[4]; LPS-, hyperoxia- and CLP-induced ARDS in adult mice",decreases severe lung inflammation

# Reference: patent US12440471B2, “Compositions and methods for the treatment of bronchopulmonary dysplasia (BPD) and BPD-associated pulmonary hypertension” (AyuVis Research, Inc., priority 2021, dated 2025)
